Measured values as given in article PMC5513037, “Examining the influence of specificity ligands and ATP-competitive ligands on the overall effectiveness of bivalent kinase inhibitors” (Proteome Science, 2017).

How the values were obtained:
Assay in all cases: KAM-matrix competition in K562 lysate;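 as to 0.001 uM KAM: median log10 fold change of treatment over DMSO control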;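 as to 0.01 uM KAM: median log10 fold change of treatment over DMSO control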;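 as to 0.1 uM KAM: median log10 fold change of treatment over DMSO control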;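 as to 1 uM KAM: median log10 fold change of treatment over DMSO control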;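 as to 10 uM KAM: median log10 fold change of treatment over DMSO control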
Format in all cases: binding
MELK = target: T1, MELK (Homo sapiens, UniProt Q14680)
T1 construct: endogenous in cells; host or cells: K562
Description: (§1) Supplement 12953_2017_125_MOESM1_ESM.zip/MS_Supp Info.xlsx, sheet "KAM" | column: 10 uM KAM; 1 uM KAM; 0.1 uM KAM; 0.01 uM KAM; 0.001 uM KAM; RB50

JAK2 = target: T2, JAK2 (Homo sapiens, UniProt O60674)
T2 construct: endogenous in cells; host or cells: K562
Description: as §1

LATS1 = target: T3, LATS1 (Homo sapiens, UniProt O95835)
T3 construct: endogenous in cells; host or cells: K562
T3 sequence (O95835 1-1130): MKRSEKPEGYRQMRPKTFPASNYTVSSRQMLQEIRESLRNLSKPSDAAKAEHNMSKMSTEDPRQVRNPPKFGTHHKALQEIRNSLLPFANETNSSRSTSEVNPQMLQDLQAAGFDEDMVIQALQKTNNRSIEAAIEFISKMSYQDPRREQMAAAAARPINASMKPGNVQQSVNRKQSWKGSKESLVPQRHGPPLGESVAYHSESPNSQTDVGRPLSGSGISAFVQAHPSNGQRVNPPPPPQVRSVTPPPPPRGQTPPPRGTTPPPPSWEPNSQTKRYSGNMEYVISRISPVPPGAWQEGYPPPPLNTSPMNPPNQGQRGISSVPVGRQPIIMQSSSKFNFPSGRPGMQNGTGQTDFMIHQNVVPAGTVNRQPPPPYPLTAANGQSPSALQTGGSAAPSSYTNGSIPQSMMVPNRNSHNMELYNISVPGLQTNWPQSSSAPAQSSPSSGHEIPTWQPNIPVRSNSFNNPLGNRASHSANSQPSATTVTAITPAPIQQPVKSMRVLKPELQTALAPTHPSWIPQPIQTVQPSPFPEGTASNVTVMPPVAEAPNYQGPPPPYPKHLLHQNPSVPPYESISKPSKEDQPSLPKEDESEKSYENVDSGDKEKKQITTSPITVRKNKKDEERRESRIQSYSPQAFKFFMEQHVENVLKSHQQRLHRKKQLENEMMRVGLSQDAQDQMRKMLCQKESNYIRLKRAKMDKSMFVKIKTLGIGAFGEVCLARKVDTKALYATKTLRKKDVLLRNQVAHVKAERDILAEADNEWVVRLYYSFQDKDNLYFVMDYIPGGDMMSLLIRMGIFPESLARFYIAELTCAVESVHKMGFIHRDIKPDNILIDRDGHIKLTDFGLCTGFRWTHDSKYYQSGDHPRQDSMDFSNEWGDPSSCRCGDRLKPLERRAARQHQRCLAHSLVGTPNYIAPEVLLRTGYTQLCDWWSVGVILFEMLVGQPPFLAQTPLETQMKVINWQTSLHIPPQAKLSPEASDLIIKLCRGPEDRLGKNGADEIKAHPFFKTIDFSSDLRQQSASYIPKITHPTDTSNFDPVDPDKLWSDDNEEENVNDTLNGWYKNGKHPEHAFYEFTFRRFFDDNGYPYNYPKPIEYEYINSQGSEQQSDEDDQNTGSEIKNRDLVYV
Description: as §1

TNIK = target: T4, TNIK (Homo sapiens, UniProt Q9UKE5)
T4 construct: K562 cell pellets were thawed on ice and resuspended in cold Lysis buffer; endogenous in cells; host or cells: K562
Description: as §1

MARK3 = target: T5, MARK3 (Homo sapiens, UniProt P27448)
T5 construct: endogenous in cells; host or cells: K562
Description: as §1

MAP2K2 = target: T6, MAP2K2 (Homo sapiens, UniProt P36507)
T6 construct: endogenous in cells; host or cells: K562
Description: as §1

FAM20B = target: T7, FAM20B (Homo sapiens, UniProt O75063);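 as to 0.001 uM KAM: median log10 fold change of treatment over DMSO control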;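 as to 0.01 uM KAM: median log10 fold change of treatment over DMSO control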;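 as to 0.1 uM KAM: median log10 fold change of treatment over DMSO control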;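 as to 1 uM KAM: median log10 fold change of treatment over DMSO control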;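 as to 10 uM KAM: median log10 fold change of treatment over DMSO control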
T7 construct: endogenous in cells; host or cells: K562
T7 sequence (O75063 1-409): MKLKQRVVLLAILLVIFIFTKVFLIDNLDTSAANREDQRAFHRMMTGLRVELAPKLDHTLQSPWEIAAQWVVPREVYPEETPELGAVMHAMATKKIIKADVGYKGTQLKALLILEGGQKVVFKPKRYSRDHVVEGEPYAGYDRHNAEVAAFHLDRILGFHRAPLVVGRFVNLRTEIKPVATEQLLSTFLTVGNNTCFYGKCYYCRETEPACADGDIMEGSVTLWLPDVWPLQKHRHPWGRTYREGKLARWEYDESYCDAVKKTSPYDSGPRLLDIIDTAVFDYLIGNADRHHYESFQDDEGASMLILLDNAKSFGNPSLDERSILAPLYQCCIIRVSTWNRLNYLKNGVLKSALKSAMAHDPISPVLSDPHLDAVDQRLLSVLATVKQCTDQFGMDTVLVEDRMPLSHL
Description: as §1

SIK2 = target: T8, SIK2 (Homo sapiens, UniProt Q9H0K1)
T8 construct: endogenous in cells; host or cells: K562 cells (lysate)
Description: as §1

[1] = read-out: RB50 (the source's name)

T4 sequence (Q9UKE5 whole entry): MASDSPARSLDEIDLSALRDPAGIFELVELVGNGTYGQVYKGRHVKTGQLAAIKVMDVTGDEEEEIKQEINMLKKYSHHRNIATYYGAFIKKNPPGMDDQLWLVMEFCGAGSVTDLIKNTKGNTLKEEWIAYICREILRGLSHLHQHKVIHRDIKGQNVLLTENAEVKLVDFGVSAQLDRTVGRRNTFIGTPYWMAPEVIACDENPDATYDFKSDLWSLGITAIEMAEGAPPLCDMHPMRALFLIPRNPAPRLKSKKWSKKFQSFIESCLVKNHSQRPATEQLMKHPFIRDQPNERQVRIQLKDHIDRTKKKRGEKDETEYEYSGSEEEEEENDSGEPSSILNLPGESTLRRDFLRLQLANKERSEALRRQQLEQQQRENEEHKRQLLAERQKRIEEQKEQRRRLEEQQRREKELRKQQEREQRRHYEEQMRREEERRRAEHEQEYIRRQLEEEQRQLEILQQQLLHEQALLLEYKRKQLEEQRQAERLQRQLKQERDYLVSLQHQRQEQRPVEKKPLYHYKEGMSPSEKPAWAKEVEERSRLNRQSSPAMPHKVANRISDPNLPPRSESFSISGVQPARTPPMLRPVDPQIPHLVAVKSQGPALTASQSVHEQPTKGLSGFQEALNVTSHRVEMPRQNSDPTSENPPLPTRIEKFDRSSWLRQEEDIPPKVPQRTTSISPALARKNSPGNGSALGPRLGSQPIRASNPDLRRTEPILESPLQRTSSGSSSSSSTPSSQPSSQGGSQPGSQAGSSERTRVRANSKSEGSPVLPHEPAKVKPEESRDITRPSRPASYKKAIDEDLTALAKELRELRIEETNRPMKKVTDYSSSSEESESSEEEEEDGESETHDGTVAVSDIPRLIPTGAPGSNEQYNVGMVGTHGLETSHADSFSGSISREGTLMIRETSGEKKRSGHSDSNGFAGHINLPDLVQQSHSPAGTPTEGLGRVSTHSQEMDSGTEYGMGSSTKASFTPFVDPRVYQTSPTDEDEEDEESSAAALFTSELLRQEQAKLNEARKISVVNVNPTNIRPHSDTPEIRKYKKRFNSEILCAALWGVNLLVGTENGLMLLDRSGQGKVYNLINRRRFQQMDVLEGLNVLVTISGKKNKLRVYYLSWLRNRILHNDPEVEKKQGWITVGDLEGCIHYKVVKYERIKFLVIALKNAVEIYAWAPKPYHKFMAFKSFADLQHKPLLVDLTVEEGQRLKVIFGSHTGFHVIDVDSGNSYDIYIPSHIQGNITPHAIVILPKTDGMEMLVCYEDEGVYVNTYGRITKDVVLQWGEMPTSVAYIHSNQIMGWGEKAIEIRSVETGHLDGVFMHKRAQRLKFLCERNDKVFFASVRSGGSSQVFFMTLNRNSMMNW
T2 sequence (O60674 whole entry): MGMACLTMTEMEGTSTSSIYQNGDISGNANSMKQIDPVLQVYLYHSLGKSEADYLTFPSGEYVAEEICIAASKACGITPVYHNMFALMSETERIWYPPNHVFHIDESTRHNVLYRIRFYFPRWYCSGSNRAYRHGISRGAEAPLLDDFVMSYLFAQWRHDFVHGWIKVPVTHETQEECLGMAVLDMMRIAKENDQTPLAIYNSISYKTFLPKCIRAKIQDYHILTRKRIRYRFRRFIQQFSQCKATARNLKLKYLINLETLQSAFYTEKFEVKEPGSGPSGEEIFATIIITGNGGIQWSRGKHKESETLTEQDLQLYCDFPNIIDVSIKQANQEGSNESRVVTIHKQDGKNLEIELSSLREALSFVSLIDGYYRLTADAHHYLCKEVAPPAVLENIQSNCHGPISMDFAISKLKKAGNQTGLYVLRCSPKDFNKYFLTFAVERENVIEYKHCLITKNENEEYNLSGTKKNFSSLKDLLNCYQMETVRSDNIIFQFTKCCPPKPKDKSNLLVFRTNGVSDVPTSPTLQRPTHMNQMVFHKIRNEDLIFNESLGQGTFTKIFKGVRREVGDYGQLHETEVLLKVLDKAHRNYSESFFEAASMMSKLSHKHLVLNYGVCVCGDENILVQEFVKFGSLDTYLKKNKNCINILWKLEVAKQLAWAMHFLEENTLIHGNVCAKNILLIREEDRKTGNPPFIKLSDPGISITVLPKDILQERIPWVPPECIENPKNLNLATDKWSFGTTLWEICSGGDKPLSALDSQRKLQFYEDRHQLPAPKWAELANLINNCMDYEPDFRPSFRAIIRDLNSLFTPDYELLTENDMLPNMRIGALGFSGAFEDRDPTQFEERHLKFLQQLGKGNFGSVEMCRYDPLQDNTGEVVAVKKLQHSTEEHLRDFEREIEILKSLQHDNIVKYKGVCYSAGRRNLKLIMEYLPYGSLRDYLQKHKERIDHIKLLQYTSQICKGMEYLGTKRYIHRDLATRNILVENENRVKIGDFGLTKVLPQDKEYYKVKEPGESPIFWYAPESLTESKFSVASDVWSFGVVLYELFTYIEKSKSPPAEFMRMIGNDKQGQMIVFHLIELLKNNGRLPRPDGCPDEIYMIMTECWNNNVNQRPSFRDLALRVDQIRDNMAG
T5 sequence (P27448 whole entry): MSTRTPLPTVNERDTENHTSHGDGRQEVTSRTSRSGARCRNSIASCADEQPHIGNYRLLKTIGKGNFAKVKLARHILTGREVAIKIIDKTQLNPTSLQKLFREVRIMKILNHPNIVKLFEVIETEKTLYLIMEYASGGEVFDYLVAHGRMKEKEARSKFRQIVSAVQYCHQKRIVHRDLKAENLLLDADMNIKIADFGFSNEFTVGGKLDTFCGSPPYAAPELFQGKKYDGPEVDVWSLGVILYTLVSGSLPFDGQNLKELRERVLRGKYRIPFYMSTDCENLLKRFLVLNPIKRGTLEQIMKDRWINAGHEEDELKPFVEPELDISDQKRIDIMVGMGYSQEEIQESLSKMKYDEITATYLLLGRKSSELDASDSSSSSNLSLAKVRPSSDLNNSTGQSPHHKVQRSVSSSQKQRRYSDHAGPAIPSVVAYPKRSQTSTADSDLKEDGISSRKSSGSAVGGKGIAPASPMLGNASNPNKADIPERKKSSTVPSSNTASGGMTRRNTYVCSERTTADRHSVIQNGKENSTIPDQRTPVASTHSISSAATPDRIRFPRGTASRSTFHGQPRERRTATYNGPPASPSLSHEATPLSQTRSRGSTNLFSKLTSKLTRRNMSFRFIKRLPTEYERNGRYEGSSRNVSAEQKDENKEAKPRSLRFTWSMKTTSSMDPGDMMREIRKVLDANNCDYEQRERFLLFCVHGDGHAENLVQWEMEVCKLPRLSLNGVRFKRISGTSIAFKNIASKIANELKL
T8 sequence (Q9H0K1 whole entry): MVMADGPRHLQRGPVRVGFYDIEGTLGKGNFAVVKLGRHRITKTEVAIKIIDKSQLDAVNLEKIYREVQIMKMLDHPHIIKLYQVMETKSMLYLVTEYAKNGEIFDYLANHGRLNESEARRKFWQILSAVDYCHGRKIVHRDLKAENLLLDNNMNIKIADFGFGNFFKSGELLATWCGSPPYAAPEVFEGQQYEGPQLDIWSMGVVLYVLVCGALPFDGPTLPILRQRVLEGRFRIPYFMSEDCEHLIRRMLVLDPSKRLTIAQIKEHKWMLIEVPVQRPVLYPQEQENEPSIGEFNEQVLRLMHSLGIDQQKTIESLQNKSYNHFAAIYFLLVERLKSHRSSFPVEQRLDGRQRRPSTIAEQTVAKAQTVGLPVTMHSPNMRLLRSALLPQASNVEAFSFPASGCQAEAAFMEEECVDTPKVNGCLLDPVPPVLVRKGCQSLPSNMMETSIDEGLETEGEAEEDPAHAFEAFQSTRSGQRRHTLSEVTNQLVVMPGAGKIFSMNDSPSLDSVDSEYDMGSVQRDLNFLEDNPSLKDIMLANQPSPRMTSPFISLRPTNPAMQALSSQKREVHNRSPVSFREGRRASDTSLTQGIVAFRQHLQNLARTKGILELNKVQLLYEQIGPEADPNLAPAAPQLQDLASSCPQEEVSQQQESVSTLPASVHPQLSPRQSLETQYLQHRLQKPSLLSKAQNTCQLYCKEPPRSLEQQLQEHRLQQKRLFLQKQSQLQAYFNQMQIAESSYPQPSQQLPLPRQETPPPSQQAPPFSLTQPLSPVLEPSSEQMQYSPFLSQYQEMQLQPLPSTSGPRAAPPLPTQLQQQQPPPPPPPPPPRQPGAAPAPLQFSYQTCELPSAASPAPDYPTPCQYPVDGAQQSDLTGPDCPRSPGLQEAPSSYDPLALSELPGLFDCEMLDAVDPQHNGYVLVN
T6 sequence (P36507 whole entry): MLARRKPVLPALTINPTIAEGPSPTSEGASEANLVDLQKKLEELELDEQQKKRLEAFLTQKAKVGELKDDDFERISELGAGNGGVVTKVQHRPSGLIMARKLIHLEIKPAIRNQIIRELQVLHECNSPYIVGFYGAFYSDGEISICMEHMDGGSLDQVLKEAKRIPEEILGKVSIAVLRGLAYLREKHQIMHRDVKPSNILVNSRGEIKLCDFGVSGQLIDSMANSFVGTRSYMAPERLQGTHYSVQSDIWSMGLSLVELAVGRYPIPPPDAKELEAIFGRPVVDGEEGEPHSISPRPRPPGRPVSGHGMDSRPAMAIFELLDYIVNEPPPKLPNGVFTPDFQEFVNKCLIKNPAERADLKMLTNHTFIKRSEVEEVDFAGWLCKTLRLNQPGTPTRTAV

## N#CCc1ccc(Nc2nc(NCCCN)cc(Nc3cc(C4CC4)[nH]n3)n2)cc1 [KAM]
MELK; 0.001 uM KAM
  median Log10 fold change: -0.02147
MELK; 0.01 uM KAM
  median Log10 fold change: 0.005817
MELK; 0.1 uM KAM
  median Log10 fold change: -0.06915
MELK; 1 uM KAM
  median Log10 fold change: -0.3528
MELK; 10 uM KAM
  median Log10 fold change: -0.5701
MELK; [1]
  IC50: 940 nM
JAK2; 0.001 uM KAM
  median Log10 fold change: -0.002638
JAK2; 0.01 uM KAM
  median Log10 fold change: -0.00181
JAK2; 0.1 uM KAM
  median Log10 fold change: -0.159
JAK2; 1 uM KAM
  median Log10 fold change: -0.3349
JAK2; 10 uM KAM
  median Log10 fold change: -0.4311
JAK2; [1]
  IC50: 909 nM
LATS1; 0.001 uM KAM
  median Log10 fold change: -0.01464
LATS1; 0.01 uM KAM
  median Log10 fold change: -0.02487
LATS1; 0.1 uM KAM
  median Log10 fold change: -0.2673
LATS1; 1 uM KAM
  median Log10 fold change: -0.4734
LATS1; 10 uM KAM
  median Log10 fold change: -0.4675
LATS1; [1]
  IC50: 206 nM
TNIK; 0.001 uM KAM
  median Log10 fold change: -0.02112
TNIK; 0.01 uM KAM
  median Log10 fold change: -0.02269
TNIK; 0.1 uM KAM
  median Log10 fold change: -0.2334
TNIK; 1 uM KAM
  median Log10 fold change: -0.3546
TNIK; 10 uM KAM
  median Log10 fold change: -0.3559
TNIK; [1]
  IC50: 646 nM
MARK3; 0.001 uM KAM
  median Log10 fold change: -0.0002127
MARK3; 0.01 uM KAM
  median Log10 fold change: -0.02099
MARK3; 0.1 uM KAM
  median Log10 fold change: -0.2742
MARK3; 1 uM KAM
  median Log10 fold change: -0.5652
MARK3; 10 uM KAM
  median Log10 fold change: -0.6472
MARK3; [1]
  IC50: 160 nM
MAP2K2; 0.001 uM KAM
  median Log10 fold change: -0.0579
MAP2K2; 0.01 uM KAM
  median Log10 fold change: -0.04236
MAP2K2; 0.1 uM KAM
  median Log10 fold change: -0.2079
MAP2K2; 1 uM KAM
  median Log10 fold change: -0.4376
MAP2K2; 10 uM KAM
  median Log10 fold change: -0.4638
MAP2K2; [1]
  IC50: 360 nM
FAM20B; KAM 0.001-10 uM, read-out: RB50 (the source's name)
  IC50: > 10000 nM
FAM20B; relative to 0 uM KAM = 0
  0.001 uM KAM: -0.03245
  0.01 uM KAM: -0.03308
  0.1 uM KAM: -0.01554
  1 uM KAM: -0.05098
  10 uM KAM: 0.1003
SIK2; 0.001 uM KAM
  median Log10 fold change: -0.01021
SIK2; 0.01 uM KAM
  median Log10 fold change: -0.008818
SIK2; 0.1 uM KAM
  median Log10 fold change: -0.08618
SIK2; 1 uM KAM
  median Log10 fold change: -0.3925
SIK2; 10 uM KAM
  median Log10 fold change: -0.5017
SIK2; [1]
  IC50: 798 nM
